Legend:
Assay in all cases: relative viability (nuclei count vs DMSO), 5 days (fraction); higher = more cells survive
SK-LU-1 = tested on: SK-LU-1
Method in brief: (§1)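 Relative viability equals treated-well nuclei counts divided by vehicle-well nuclei counts. Counts came from 4× images of lung cancer cell lines grown in 1536-well plates for 5 days after pin-tool dosing on the day after seeding. Dosing used one drug alone or a fixed anchor-drug dose plus five library-drug doses (not always all listed) in √10 steps, and values are medians of duplicate plates.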

NCI-H3122 = tested on: NCI-H3122
Method in brief: as §1

NCI-H2087 = tested on: NCI-H2087
Method in brief: as §1

HCC-44 = tested on: HCC-44
Method in brief: as §1

LCLC-103H = tested on: LCLC-103H
Method in brief: as §1

201T = tested on: 201T
Method in brief: as §1

RERF-LC-KJ = tested on: RERF-LC-KJ
Method in brief: as §1

NCI-H1437 = tested on: NCI-H1437
Method in brief: as §1

NCI-H1793 = tested on: NCI-H1793
Method in brief: as §1

NCI-H1944 = tested on: NCI-H1944
Method in brief: as §1

LCLC-97TM1 = tested on: LCLC-97TM1
Method in brief: as §1

LXF-289 = tested on: LXF-289
Method in brief: as §1

NCI-H322M = tested on: NCI-H322M
Method in brief: as §1

BEN = tested on: BEN
Method in brief: as §1

NCI-H727 = tested on: NCI-H727
Method in brief: as §1

NCI-H2405 = tested on: NCI-H2405
Method in brief: as §1

NCI-H2228 = tested on: NCI-H2228
Method in brief: as §1

HCC-827 = tested on: HCC-827
Method in brief: as §1

NCI-H1650 = tested on: NCI-H1650
Method in brief: as §1

CAL-12T = tested on: CAL-12T
Method in brief: as §1

NCI-H647 = tested on: NCI-H647
Method in brief: as §1

HOP-62 = tested on: HOP-62
Method in brief: as §1

NCI-H1395 = tested on: NCI-H1395
Method in brief: as §1

Structure (SMILES): C=C1C(=O)O[C@@H](CCCCCCCC)[C@@H]1C(=O)O [C-75] + Cc1cc(Nc2cc(N3CCN(C)CC3)nc(Sc3ccc(NC(=O)C4CC4)cc3)n2)n[nH]1 [Tozasertib] (partner 0.1 µM)
- relative viability (SK-LU-1; first compound 0.08 µM): 0.349
- relative viability (SK-LU-1; first compound 0.253 µM): 0.374
- relative viability (SK-LU-1; first compound 0.8 µM): 0.357
- relative viability (SK-LU-1; first compound 2.53 µM): 0.314
- relative viability (SK-LU-1; first compound 8 µM): 0.311
- relative viability (NCI-H3122; first compound 0.08 µM): 0.414
- relative viability (NCI-H3122; first compound 0.253 µM): 0.514
- relative viability (NCI-H3122; first compound 0.8 µM): 0.403
- relative viability (NCI-H3122; first compound 8 µM): 0.518
- relative viability (NCI-H2087; first compound 0.08 µM): 0.245
- relative viability (NCI-H2087; first compound 0.253 µM): 0.294
- relative viability (NCI-H2087; first compound 0.8 µM): 0.179
- relative viability (NCI-H2087; first compound 2.53 µM): 0.228
- relative viability (NCI-H2087; first compound 8 µM): 0.305
- relative viability (HCC-44; first compound 0.08 µM): 0.989
- relative viability (HCC-44; first compound 0.253 µM): 0.942
- relative viability (HCC-44; first compound 0.8 µM): 0.9
- relative viability (HCC-44; first compound 2.53 µM): 0.878
- relative viability (HCC-44; first compound 8 µM): 0.714
- relative viability (LCLC-103H; first compound 0.08 µM): 0.597
- relative viability (LCLC-103H; first compound 0.253 µM): 0.543
- relative viability (LCLC-103H; first compound 0.8 µM): 0.428
- relative viability (LCLC-103H; first compound 2.53 µM): 0.514
- relative viability (LCLC-103H; first compound 8 µM): 0.406
- relative viability (201T; first compound 0.08 µM): 0.985
- relative viability (201T; first compound 0.253 µM): 1.12
- relative viability (201T; first compound 0.8 µM): 1.04
- relative viability (201T; first compound 2.53 µM): 0.932
- relative viability (201T; first compound 8 µM): 1.02
- relative viability (RERF-LC-KJ; first compound 0.08 µM): 0.561
- relative viability (RERF-LC-KJ; first compound 0.253 µM): 0.568
- relative viability (RERF-LC-KJ; first compound 0.8 µM): 0.557
- relative viability (RERF-LC-KJ; first compound 2.53 µM): 0.493
- relative viability (RERF-LC-KJ; first compound 8 µM): 0.536
- relative viability (NCI-H1437; first compound 0.08 µM): 0.387
- relative viability (NCI-H1437; first compound 0.253 µM): 0.462
- relative viability (NCI-H1437; first compound 0.8 µM): 0.442
- relative viability (NCI-H1437; first compound 2.53 µM): 0.355
- relative viability (NCI-H1437; first compound 8 µM): 0.437
- relative viability (NCI-H1793; first compound 0.08 µM): 0.306
- relative viability (NCI-H1793; first compound 0.253 µM): 0.315
- relative viability (NCI-H1793; first compound 0.8 µM): 0.344
- relative viability (NCI-H1793; first compound 2.53 µM): 0.258
- relative viability (NCI-H1793; first compound 8 µM): 0.335
- relative viability (NCI-H1944; first compound 0.08 µM): 0.256
- relative viability (NCI-H1944; first compound 0.253 µM): 0.235
- relative viability (NCI-H1944; first compound 0.8 µM): 0.243
- relative viability (NCI-H1944; first compound 8 µM): 0.246
- relative viability (LCLC-97TM1; first compound 0.08 µM): 0.23
- relative viability (LCLC-97TM1; first compound 0.253 µM): 0.319
- relative viability (LCLC-97TM1; first compound 0.8 µM): 0.22
- relative viability (LCLC-97TM1; first compound 2.53 µM): 0.16
- relative viability (LCLC-97TM1; first compound 8 µM): 0.187
- relative viability (LXF-289; first compound 0.08 µM): 0.193
- relative viability (LXF-289; first compound 0.253 µM): 0.18
- relative viability (LXF-289; first compound 0.8 µM): 0.183
- relative viability (LXF-289; first compound 2.53 µM): 0.119
- relative viability (LXF-289; first compound 8 µM): 0.182
- relative viability (NCI-H322M; first compound 0.08 µM): 0.46
- relative viability (NCI-H322M; first compound 0.253 µM): 0.453
- relative viability (NCI-H322M; first compound 0.8 µM): 0.458
- relative viability (NCI-H322M; first compound 2.53 µM): 0.302
- relative viability (NCI-H322M; first compound 8 µM): 0.487
- relative viability (BEN; first compound 0.08 µM): 0.494
- relative viability (BEN; first compound 0.253 µM): 0.605
- relative viability (BEN; first compound 0.8 µM): 0.544
- relative viability (BEN; first compound 2.53 µM): 0.484
- relative viability (BEN; first compound 8 µM): 0.612
- relative viability (NCI-H727; first compound 0.08 µM): 0.623
- relative viability (NCI-H727; first compound 0.253 µM): 0.623
- relative viability (NCI-H727; first compound 0.8 µM): 0.559
- relative viability (NCI-H727; first compound 8 µM): 0.674
- relative viability (NCI-H2405; first compound 0.08 µM): 0.747
- relative viability (NCI-H2405; first compound 0.253 µM): 0.683
- relative viability (NCI-H2405; first compound 0.8 µM): 0.756
- relative viability (NCI-H2405; first compound 2.53 µM): 0.772
- relative viability (NCI-H2405; first compound 8 µM): 0.81
- relative viability (NCI-H2228; first compound 0.08 µM): 0.29
- relative viability (NCI-H2228; first compound 0.253 µM): 0.344
- relative viability (NCI-H2228; first compound 0.8 µM): 0.26
- relative viability (NCI-H2228; first compound 2.53 µM): 0.25
- relative viability (NCI-H2228; first compound 8 µM): 0.269
- relative viability (HCC-827; first compound 0.08 µM): 0.428
- relative viability (HCC-827; first compound 0.253 µM): 0.413
- relative viability (HCC-827; first compound 0.8 µM): 0.431
- relative viability (HCC-827; first compound 2.53 µM): 0.379
- relative viability (HCC-827; first compound 8 µM): 0.411
- relative viability (NCI-H1650; first compound 0.08 µM): 0.413
- relative viability (NCI-H1650; first compound 0.253 µM): 0.647
- relative viability (NCI-H1650; first compound 2.53 µM): 0.422
- relative viability (NCI-H1650; first compound 8 µM): 0.38
- relative viability (CAL-12T; first compound 0.08 µM): 0.281
- relative viability (CAL-12T; first compound 0.253 µM): 0.423
- relative viability (CAL-12T; first compound 0.8 µM): 0.312
- relative viability (CAL-12T; first compound 2.53 µM): 0.281
- relative viability (CAL-12T; first compound 8 µM): 0.345
- relative viability (NCI-H647; first compound 0.08 µM): 0.24
- relative viability (NCI-H647; first compound 0.253 µM): 0.365
- relative viability (NCI-H647; first compound 0.8 µM): 0.211
- relative viability (NCI-H647; first compound 2.53 µM): 0.457
- relative viability (NCI-H647; first compound 8 µM): 0.233
- relative viability (HOP-62; first compound 0.08 µM): 0.373
- relative viability (HOP-62; first compound 0.253 µM): 0.389
- relative viability (HOP-62; first compound 0.8 µM): 0.363
- relative viability (HOP-62; first compound 2.53 µM): 0.385
- relative viability (HOP-62; first compound 8 µM): 0.335
- relative viability (NCI-H1395; first compound 0.08 µM): 0.73
- relative viability (NCI-H1395; first compound 0.253 µM): 0.732
- relative viability (NCI-H1395; first compound 0.8 µM): 0.803
- relative viability (NCI-H1395; first compound 2.53 µM): 0.669
- relative viability (NCI-H1395; first compound 8 µM): 0.795
